Measured values published in PMC8699473, “An Easily Expandable Multi-Drug LC-MS Assay for the Simultaneous Quantification of 57 Oral Antitumor Drugs in Human Plasma” (Cancers, 2021).

Test: Long-term stability in spiked pooled human plasma

Row | Structure (SMILES) | Long-term stability, 1 month, -20°C Accuracy [%] (validation standard 2xLLOV) | Long-term stability, 1 month, -80°C Accuracy [%] (validation standard 2xLLOV) | Long-term stability, 2 month, -20°C Accuracy [%] (validation standard 2xLLOV) | Long-term stability, 2 month, -80°C Accuracy [%] (validation standard 2xLLOV) | Long-term stability, 3 month, -20°C Accuracy [%] (validation standard 2xLLOV) | Long-term stability, 3 month, -80°C Accuracy [%] (validation standard 2xLLOV) | Long-term stability, 1 month, -20°C Accuracy [%] (validation standard LLOV) | Long-term stability, 1 month, -80°C Accuracy [%] (validation standard LLOV) | Long-term stability, 2 month, -20°C Accuracy [%] (validation standard LLOV) | Long-term stability, 2 month, -80°C Accuracy [%] (validation standard LLOV) | Long-term stability, 3 month, -20°C Accuracy [%] (validation standard LLOV) | Long-term stability, 3 month, -80°C Accuracy [%] (validation standard LLOV) | Long-term stability, 1 month, -20°C Accuracy [%] (validation standard MOV) | Long-term stability, 1 month, -80°C Accuracy [%] (validation standard MOV) | Long-term stability, 2 month, -20°C Accuracy [%] (validation standard MOV) | Long-term stability, 2 month, -80°C Accuracy [%] (validation standard MOV) | Long-term stability, 3 month, -20°C Accuracy [%] (validation standard MOV) | Long-term stability, 3 month, -80°C Accuracy [%] (validation standard MOV) | Long-term stability, 1 month, -20°C Accuracy [%] (validation standard ULOV) | Long-term stability, 1 month, -80°C Accuracy [%] (validation standard ULOV) | other results
1 | Cc1c(C(=O)Nc2ccc(N3C[C@@H](C)O[C@@H](C)C3)nc2)cccc1-c1ccc(OC(F)(F)F)cc1 [Sonidegib] | 106.2 | 108.9 | 111.0 | 107.0 | 96.1 | 104.6 | 109.9 | 108.6 | 105.8 | 104.4 | 103.1 | 109.9 | 104.9 | 108.0 | 114.5 | 119.3 | 95.1 | 99.2 | 106.5 | 105.4 | Long-term stability, 6 weeks, 4°C, without daylight Accuracy [%] (validation standard 2xLLOV): 91.2%; Long-term stability, 6 weeks, 4°C, without daylight Accuracy [%] (validation standard LLOV): 89.3%; Long-term stability, 6 weeks, 4°C, without daylight Accuracy [%] (validation standard MOV): 106.1%; Long-term stability, 2 month, -20°C Accuracy [%] (validation standard ULOV): 122.3%; Long-term stability, 2 month, -80°C Accuracy [%] (validation standard ULOV): 122.3%; Long-term stability, 3 month, -20°C Accuracy [%] (validation standard ULOV): 89.3%; Long-term stability, 3 month, -80°C Accuracy [%] (validation standard ULOV): 100.0%; Long-term stability, 6 weeks, 4°C, without daylight Accuracy [%] (validation standard ULOV): 100.7%
2 | CNC(=O)c1cc(Oc2ccc(NC(=O)Nc3ccc(Cl)c(C(F)(F)F)c3)cc2)ccn1 [Sorafenib] | 103.7 | 110.1 | 109.9 | 106.2 | 94.5 | 108.7 | 106.1 | 102.7 | 109.0 | 106.5 | 100.5 | 111.4 | 106.1 | 108.3 | 112.2 | 118.4 | 94.0 | 100.4 | 104.5 | 103.5 | Long-term stability, 6 weeks, 4°C, without daylight Accuracy [%] (validation standard 2xLLOV): 74.5%; Long-term stability, 6 weeks, 4°C, without daylight Accuracy [%] (validation standard LLOV): 71.1%; Long-term stability, 6 weeks, 4°C, without daylight Accuracy [%] (validation standard MOV): 106.5%; Long-term stability, 2 month, -20°C Accuracy [%] (validation standard ULOV): 116.0%; Long-term stability, 2 month, -80°C Accuracy [%] (validation standard ULOV): 114.3%; Long-term stability, 3 month, -20°C Accuracy [%] (validation standard ULOV): 90.5%; Long-term stability, 3 month, -80°C Accuracy [%] (validation standard ULOV): 102.3%; Long-term stability, 6 weeks, 4°C, without daylight Accuracy [%] (validation standard ULOV): 99.7%
3 | O=C1CCC(N2C(=O)c3ccccc3C2=O)C(=O)N1 (stereo not shown) [Thalidomide] | 75.6 | 74.9 | 58.1 | 79.7 | 50.7 | 79.8 | 71.4 | 76.7 | 57.5 | 72.7 | 43.9 | 76.7 | 66.7 | 73.1 | 57.0 | 77.9 | 50.8 | 75.0 | 68.6 | 66.3 | Long-term stability, 2 month, -20°C Accuracy [%] (validation standard ULOV): 42.5%; Long-term stability, 2 month, -80°C Accuracy [%] (validation standard ULOV): 79.5%; Long-term stability, 3 month, -20°C Accuracy [%] (validation standard ULOV): 33.5%; Long-term stability, 3 month, -80°C Accuracy [%] (validation standard ULOV): 78.0%
4 | COc1cc2nccc(Oc3ccc(NC(=O)Nc4cc(C)on4)c(Cl)c3)c2cc1OC [Tivozanib] | 101.4 | 95.7 | 98.9 | 101.4 | 96.9 | 95.2 | 99.8 | 96.0 | 95.8 | 100.7 | 92.5 | 97.1 | 97.4 | 95.0 | 102.0 | 101.3 | 100.0 | 98.0 | 97.0 | 92.8 | Long-term stability, 6 weeks, 4°C, without daylight Accuracy [%] (validation standard 2xLLOV): 93.9%; Long-term stability, 6 weeks, 4°C, without daylight Accuracy [%] (validation standard LLOV): 86.9%; Long-term stability, 6 weeks, 4°C, without daylight Accuracy [%] (validation standard MOV): 107.6%; Long-term stability, 2 month, -20°C Accuracy [%] (validation standard ULOV): 100.9%; Long-term stability, 2 month, -80°C Accuracy [%] (validation standard ULOV): 100.3%; Long-term stability, 3 month, -20°C Accuracy [%] (validation standard ULOV): 96.3%; Long-term stability, 3 month, -80°C Accuracy [%] (validation standard ULOV): 96.2%; Long-term stability, 6 weeks, 4°C, without daylight Accuracy [%] (validation standard ULOV): 100.6%
5 | CC(=O)Nc1cccc(-n2c(=O)n(C3CC3)c(=O)c3c(Nc4ccc(I)cc4F)n(C)c(=O)c(C)c32)c1 [Trametinib] | 105.1 | 110.9 | 123.9 | 104.2 | 105.5 | 103.8 | 111.6 | 101.9 | 111.6 | 103.4 | 96.6 | 104.8 | 105.2 | 107.1 | 116.1 | 117.6 | 102.9 | 102.5 | 103.2 | 99.6 | Long-term stability, 6 weeks, 4°C, without daylight Accuracy [%] (validation standard 2xLLOV): 97.4%; Long-term stability, 6 weeks, 4°C, without daylight Accuracy [%] (validation standard LLOV): 101.5%; Long-term stability, 6 weeks, 4°C, without daylight Accuracy [%] (validation standard MOV): 103.9%; Long-term stability, 2 month, -20°C Accuracy [%] (validation standard ULOV): 119.8%; Long-term stability, 2 month, -80°C Accuracy [%] (validation standard ULOV): 115.3%; Long-term stability, 3 month, -20°C Accuracy [%] (validation standard ULOV): 94.5%; Long-term stability, 3 month, -80°C Accuracy [%] (validation standard ULOV): 106.9%; Long-term stability, 6 weeks, 4°C, without daylight Accuracy [%] (validation standard ULOV): 94.7%
6 | O=c1[nH]c(=O)n([C@H]2C[C@H](O)[C@@H](CO)O2)cc1C(F)(F)F [Trifluridine] | 112.0 | 105.0 | 107.3 | 104.3 | 103.6 | 99.5 | 97.0 | 95.2 | 79.5 | 70.3 | 89.9 | 85.8 | 99.4 | 94.6 | 109.3 | 104.7 | 92.2 | 90.8 | 93.7 | 88.8 | Long-term stability, 6 weeks, 4°C, without daylight Accuracy [%] (validation standard 2xLLOV): 68.8%; Long-term stability, 6 weeks, 4°C, without daylight Accuracy [%] (validation standard LLOV): 49.1%; Long-term stability, 6 weeks, 4°C, without daylight Accuracy [%] (validation standard MOV): 59.0%; Long-term stability, 2 month, -20°C Accuracy [%] (validation standard ULOV): 98.4%; Long-term stability, 2 month, -80°C Accuracy [%] (validation standard ULOV): 95.5%; Long-term stability, 3 month, -20°C Accuracy [%] (validation standard ULOV): 82.1%; Long-term stability, 3 month, -80°C Accuracy [%] (validation standard ULOV): 79.9%; Long-term stability, 6 weeks, 4°C, without daylight Accuracy [%] (validation standard ULOV): 27.1%
7 | COc1cc2c(Nc3ccc(Br)cc3F)ncnc2cc1OCC1CCN(C)CC1 [Vandetanib] | 99.7 | 97.7 | 105.9 | 106.4 | 101.7 | 101.7 | 95.3 | 88.9 | 97.5 | 97.6 | 87.6 | 83.6 | 98.6 | 95.9 | 105.7 | 105.2 | 105.3 | 104.4 | 93.1 | 88.0 | Long-term stability, 6 weeks, 4°C, without daylight Accuracy [%] (validation standard 2xLLOV): 92.2%; Long-term stability, 6 weeks, 4°C, without daylight Accuracy [%] (validation standard LLOV): 85.4%; Long-term stability, 6 weeks, 4°C, without daylight Accuracy [%] (validation standard MOV): 100.6%; Long-term stability, 2 month, -20°C Accuracy [%] (validation standard ULOV): 98.6%; Long-term stability, 2 month, -80°C Accuracy [%] (validation standard ULOV): 98.6%; Long-term stability, 3 month, -20°C Accuracy [%] (validation standard ULOV): 97.4%; Long-term stability, 3 month, -80°C Accuracy [%] (validation standard ULOV): 98.8%; Long-term stability, 6 weeks, 4°C, without daylight Accuracy [%] (validation standard ULOV): 93.5%
8 | CCCS(=O)(=O)Nc1ccc(F)c(C(=O)c2c[nH]c3ncc(-c4ccc(Cl)cc4)cc23)c1F [Vemurafenib] | 102.1 | 105.7 | 110.6 | 108.1 | 97.3 | 105.9 | 105.8 | 101.6 | 104.5 | 98.7 | 106.2 | 114.9 | 104.9 | 106.7 | 116.1 | 119.1 | 92.9 | 96.8 | 104.7 | 101.7 | Long-term stability, 6 weeks, 4°C, without daylight Accuracy [%] (validation standard 2xLLOV): 86.3%; Long-term stability, 6 weeks, 4°C, without daylight Accuracy [%] (validation standard LLOV): 85.9%; Long-term stability, 6 weeks, 4°C, without daylight Accuracy [%] (validation standard MOV): 97.8%; Long-term stability, 2 month, -20°C Accuracy [%] (validation standard ULOV): 119.0%; Long-term stability, 2 month, -80°C Accuracy [%] (validation standard ULOV): 112.7%; Long-term stability, 3 month, -20°C Accuracy [%] (validation standard ULOV): 89.5%; Long-term stability, 3 month, -80°C Accuracy [%] (validation standard ULOV): 100.8%; Long-term stability, 6 weeks, 4°C, without daylight Accuracy [%] (validation standard ULOV): 94.4%
